Laboratory results taken from patent US6689806B1, “Indolinone compounds as kinase inhibitors” (Sugen, Inc., priority 1999, dated 2004).
Read-outs that look alike come from different tables or passages of the source.

Experiments:
SKOV3 = SKOV3 growth; assay type: cell-based; conditions: Homo sapiens, SK-OV-3, SKOV3 cells
A431 = A431 growth; assay type: cell-based; conditions: Homo sapiens, A-431, A431 cells
PDGFR = PDGFR (Homo sapiens, UniProt P09619); assay: Biochemical PDGFR assay (ELISA); parameters: expressed in transfected cells; host or cells: NIH 3T3; conditions: read-out: PDGFr biochem IC50
Description: This assay measures the in vitro kinase activity of PDGFR using ELISA.
6. PDGFR-β expressing NlH 3T3 cell lysate.
1. Coat Corning 96 well ELISA plates with 0.5 μg 28D4C10 in 100 μL PBS per well, store overnight at 4° C.
5. Dilute lysate in HNTG (10 μg lysate/100 μL HNTG)
(§1) 6. Add 100 μL of diluted lysate to each well. Shake at room temperature for 60 min.
8. Add 80 μL working kinase buffer mix to ELISA plate containing captured PDGFR.
9. Dilute test compound 1:10 in TBS in 96-well polypropylene plates (i.e., 10 μL compound+90 μL TBS).
10. Add 10 μL diluted test compound to ELISA plate.
11. Incubate for 30 minutes while shaking at room temperature.
12. Add 10 μL ATP directly to all wells except negative control well (final well volume should be approximately 100 μL with 20 μM ATP in each well.) Incubate 30 minutes while shaking.
13. After 30 minutes, stop reaction by adding 10 μL of 200 mM EDTA (pH 8.0) to each well.
(§2) 15. Add 100 μL anti-phosphotyrosine (1:3000 dilution in TBST) per well. Incubate 30-45 min. at room temperature, with shaking.
(§3) 17. Add 100 μL Biosource Goat anti-rabbit IgG peroxidase conjugate (1:2000 dilution in TBST) to each well. Incubate 30 min. at room temperature, with shaking.
(§4) 19. Add 100 μL of ABTS/H2O2 solution to each well.
22. Read assay on Dynatech MR7000 ELISA reader: test filter: 410 nM, reference filter: 630 nM.

EGFR = EGFR (Homo sapiens, UniProt P00533); assay: Biochemical EGFR assay (ELISA); parameters: A431 cell lysate; endogenous in cells; host or cells: A431; conditions: read-out: EGFr biochem IC50
Description: This assay measures the in vitro kinase activity of EGFR using ELISA.
1. Coat Coming 96 well ELISA plates with 0.5 μg SUMOl in 100 μL PBS per well, store overnight at 4° C.
5. Dilute lysate in PBS (7 μg lysate/100 μL PBS).
as §1
8. Add 120 μL TBS to ELISA plate containing captured EGFR.
9. Dilute test compound 1:10 in TBS in 96-well polypropylene plates (ie. 10 μL compound+90 μL TBS).
10. Add 13.5 μL diluted test compound to ELISA plate.
13. After 5 minutes, stop reaction by adding 16.5 μL of 200 mM EDTA (pH 8.0) to each well, shaking continuously. After the EDTA has been added, shake for 1 mm.
as §2, §3, §4
22. Read assay on Dynatech MR7000 ELISA reader. Test Filter: 410 nM Reference Filter: 630 Nm.

Her2 [1] = molecular target: T1, Her2 (Homo sapiens, UniProt P04626); assay: HER-2 ELISA: EGF receptor-HER2 chimeric receptor assay in whole cells (HER2 kinase); assay type: cell-based; conditions: NIH3T3 cells with EGFR/HER2 chimeric receptor, phosphotyrosine ELISA
T1 construct: fused on or other part: P00533 (Epidermal growth factor receptor)
Description: Assay 1: EGF Receptor-HER2 Chimeric Receptor Assay In Whole Cells.
HER2 kinase activity in whole EGFR-NIH3T3 cells was measured as described below:
1. An NIH3T3 cell line overexpressing a chimeric receptor containing the EGFR extracellular domain and intracellular HER2 kinase domain can be used for this assay.
3. Resuspend cells in seeding medium (DMEM, 0.5% bovine serum), and count the cells using trypan blue. Viability above 90% is acceptable. Seed cells in DMEM medium (0.5% bovine serum) at a density of 10,000 cells per well, 100 μL per well, in a 96 well microtiter plate. Incubate seeded cells in 5% CO2 at 37° C. for about 40 hours.
1. Check seeded cells for contamination using an inverted microscope. Dilute drug stock (10 mg/mL in DMSO) 1:10 in DMEM medium, then transfer 5 μL to a TBST well for a final drug dilution of 1:200 and a final DMSO concentration of 1%. Control wells receive DMSO alone. Incubate in 5% CO2 at 37° C. for two hours.
2. Prepare EGF ligand: dilute stock EGF in DMEM so that upon transfer of 10 μL dilute EGF (1:12 dilution), 100 nM final concentration is attained.
4. After 120 minutes incubation with drug, add prepared […] ligand to cells, 10 μL per well, to a final concentration of 100 nM. Control wells receive DMEM alone. Incubate, shaking, at room temperature, for 5 minutes.
5. Remove drug, EGF, and DMEM. Wash cells twice with PBS. Transfer HNTG* to cells, 100 μL per well. Place on ice for 5 minutes. Meanwhile, remove blocking buffer from other ELISA plate and wash with TBST as described above.
6. With a pipette tip securely fitted to a micropipettor, scrape cells from plate and homogenize cell material by repeatedly aspirating and dispensing the HNTG* lysis buffer. Transfer lysate to a coated, blocked, and washed ELISA plate. Incubate shaking at room temperature for one hour.
7. Remove lysate and wash 4 times with TBST. Transfer freshly diluted anti-Ptyr antibody to ELISA plate at 100 μL per well. Incubate shaking at room temperature for 30 minutes in the presence of the anti-Ptyr antiserum (1:3000 dilution in TBST).
8. Remove the anti-Ptyr antibody and wash 4 times with TBST. Transfer the freshly diluted TAGO anti-rabbit IgG antibody to the ELISA plate at 100 μL per well. Incubate shaking at room temperature for 30 minutes (anti-rabbit IgG antibody: 1:3000 dilution in TBST).
9. Remove TAGO detection antibody and wash 4 times with TBST. Transfer freshly prepared ABTS/H2O2 solution to ELISA plate, 100 μL per well. Incubate shaking at room temperature for 20 minutes. (ABTS/H2O2 solution: 1.0 μL 30% H2O2 in 10 mL ABTS stock).
10. Stop reaction by adding 50 μL 5N H2SO4 (optional), and determine O.D. at 410 nm.
11. The maximal phosphotyrosine signal is determined by subtracting the value of the negative controls from the positive controls. The percent inhibition of phosphotyrosine content for extract-containing wells is then calculated, after subtraction of the negative controls.

Her2 [2] = molecular target: T1, Her2; assay: EGF-induced Her2-driven BrdU incorporation; assay type: cell-based; conditions: Table 7; 3T3 cells with EGF-R/Her2 chimeric receptor, EGF 2 nM; read-out: BrdU DNA syn. HER2 IC50
Description: The cellular/biologic assays described herein measure the amount of DNA made in response to activation of a test kinase, which is a general measure of a proliferative response. The general procedure for this assay is as follows: a compound is introduced to cells expressing the test kinase, either naturally or recombinantly, for some period of time after which, if the test kinase is a receptor, a ligand known to activate the receptor is added. After incubation at least overnight, a DNA labeling reagent such as Bromodeoxy-uridine (BrdU) or 3H-thymidine is added. The amount of labeled DNA is detected with either an anti-BrdU antibody or by measuring radioactivity and is compared to control cells not contacted with a test compound.
EGF-Induced Her2-Driven BrdU Incorporation
(8) 3T3 cell line engineered to express a chimeric receptor having the extra-cellular domain of EGF-R and the intra-cellular domain of Her2.
(1) Cells are seeded at 8000 cells/well in DMEM, 10% CS, 2 mM Gln in a 96-well plate. Cells are incubated overnight at 37° C. in 5% CO2.
(2) After 24 hours, the cells are washed with PBS, and then are serum starved in serum free medium (0% CS DMEM with 0.1% BSA) for 24 hours.
(3) On day 3, ligand (EGF=2 nM, prepared in DMEM with 0.1% BSA) and test compounds are added to the cells simultaneously. The negative control wells receive serum free DMEM with 0.1% BSA only; the positive control cells receive the ligand (EGF) but no test compound. Test compounds are prepared in serum free DMEM with ligand in a 96 well plate, and serially diluted for 7 test concentrations.
(4) After 20 hours of ligand activation, diluted BrdU labeling reagent (1:100 in DMEM, 0.1% BSA) is added and the cells are incubated with BrdU (final concentration=[…]) for 1.5 hours.
(10) The absorbance of the samples are measured at 410 nm (in “dual wavelength” mode with a filter reading at 490 nm, as a reference wavelength) on a Dynatech ELISA plate reader.

[3] = Table 5, in vitro kinase activity
[4] = Table 7, in vitro kinase activity

EGFR, sequence (P00533 25-1210): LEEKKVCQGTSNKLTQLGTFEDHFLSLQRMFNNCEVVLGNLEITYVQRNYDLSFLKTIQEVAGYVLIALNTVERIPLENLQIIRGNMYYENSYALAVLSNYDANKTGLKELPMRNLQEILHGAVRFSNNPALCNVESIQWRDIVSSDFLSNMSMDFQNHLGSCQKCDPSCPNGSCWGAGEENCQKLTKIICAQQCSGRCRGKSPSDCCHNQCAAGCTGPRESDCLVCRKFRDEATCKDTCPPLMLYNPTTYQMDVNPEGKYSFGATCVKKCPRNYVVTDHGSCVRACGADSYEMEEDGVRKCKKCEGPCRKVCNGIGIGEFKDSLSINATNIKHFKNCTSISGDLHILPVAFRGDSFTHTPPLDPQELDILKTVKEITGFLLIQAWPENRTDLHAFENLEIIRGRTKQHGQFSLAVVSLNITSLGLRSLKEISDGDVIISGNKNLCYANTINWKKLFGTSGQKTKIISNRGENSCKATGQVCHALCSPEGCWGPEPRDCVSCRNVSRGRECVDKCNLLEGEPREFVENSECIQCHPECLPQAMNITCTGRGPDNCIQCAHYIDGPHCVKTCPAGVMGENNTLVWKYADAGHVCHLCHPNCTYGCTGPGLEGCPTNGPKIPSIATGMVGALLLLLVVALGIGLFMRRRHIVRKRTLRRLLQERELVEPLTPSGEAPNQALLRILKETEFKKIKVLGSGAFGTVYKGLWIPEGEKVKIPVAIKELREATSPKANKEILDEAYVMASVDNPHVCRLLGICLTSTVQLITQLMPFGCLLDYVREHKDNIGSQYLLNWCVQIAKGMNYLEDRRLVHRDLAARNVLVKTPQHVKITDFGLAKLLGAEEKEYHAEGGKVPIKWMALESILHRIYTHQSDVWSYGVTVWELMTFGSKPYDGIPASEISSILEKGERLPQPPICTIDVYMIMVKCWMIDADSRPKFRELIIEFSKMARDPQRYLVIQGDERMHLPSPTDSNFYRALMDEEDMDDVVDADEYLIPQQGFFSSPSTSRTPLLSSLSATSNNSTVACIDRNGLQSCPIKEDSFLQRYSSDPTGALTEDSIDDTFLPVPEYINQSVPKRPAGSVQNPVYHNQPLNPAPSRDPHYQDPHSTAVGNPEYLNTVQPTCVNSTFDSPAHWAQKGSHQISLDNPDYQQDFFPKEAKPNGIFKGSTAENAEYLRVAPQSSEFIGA
T1 sequence (P04626 676-1255 limits assumed): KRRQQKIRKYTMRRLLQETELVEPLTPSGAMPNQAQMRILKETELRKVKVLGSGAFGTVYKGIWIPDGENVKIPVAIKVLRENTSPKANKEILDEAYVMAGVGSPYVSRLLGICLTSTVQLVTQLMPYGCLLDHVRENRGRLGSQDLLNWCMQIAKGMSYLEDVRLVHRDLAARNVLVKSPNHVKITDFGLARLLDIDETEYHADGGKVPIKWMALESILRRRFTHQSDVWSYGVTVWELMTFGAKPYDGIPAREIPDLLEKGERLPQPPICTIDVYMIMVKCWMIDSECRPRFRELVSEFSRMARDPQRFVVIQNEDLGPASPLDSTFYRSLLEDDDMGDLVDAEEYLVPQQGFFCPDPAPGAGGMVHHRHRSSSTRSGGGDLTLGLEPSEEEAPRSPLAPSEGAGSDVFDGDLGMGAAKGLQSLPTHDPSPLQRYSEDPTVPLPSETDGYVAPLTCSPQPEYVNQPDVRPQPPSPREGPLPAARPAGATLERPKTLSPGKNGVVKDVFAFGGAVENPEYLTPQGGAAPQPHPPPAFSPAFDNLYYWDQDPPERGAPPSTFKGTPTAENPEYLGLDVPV
PDGFR, sequence (P09619 33-1106): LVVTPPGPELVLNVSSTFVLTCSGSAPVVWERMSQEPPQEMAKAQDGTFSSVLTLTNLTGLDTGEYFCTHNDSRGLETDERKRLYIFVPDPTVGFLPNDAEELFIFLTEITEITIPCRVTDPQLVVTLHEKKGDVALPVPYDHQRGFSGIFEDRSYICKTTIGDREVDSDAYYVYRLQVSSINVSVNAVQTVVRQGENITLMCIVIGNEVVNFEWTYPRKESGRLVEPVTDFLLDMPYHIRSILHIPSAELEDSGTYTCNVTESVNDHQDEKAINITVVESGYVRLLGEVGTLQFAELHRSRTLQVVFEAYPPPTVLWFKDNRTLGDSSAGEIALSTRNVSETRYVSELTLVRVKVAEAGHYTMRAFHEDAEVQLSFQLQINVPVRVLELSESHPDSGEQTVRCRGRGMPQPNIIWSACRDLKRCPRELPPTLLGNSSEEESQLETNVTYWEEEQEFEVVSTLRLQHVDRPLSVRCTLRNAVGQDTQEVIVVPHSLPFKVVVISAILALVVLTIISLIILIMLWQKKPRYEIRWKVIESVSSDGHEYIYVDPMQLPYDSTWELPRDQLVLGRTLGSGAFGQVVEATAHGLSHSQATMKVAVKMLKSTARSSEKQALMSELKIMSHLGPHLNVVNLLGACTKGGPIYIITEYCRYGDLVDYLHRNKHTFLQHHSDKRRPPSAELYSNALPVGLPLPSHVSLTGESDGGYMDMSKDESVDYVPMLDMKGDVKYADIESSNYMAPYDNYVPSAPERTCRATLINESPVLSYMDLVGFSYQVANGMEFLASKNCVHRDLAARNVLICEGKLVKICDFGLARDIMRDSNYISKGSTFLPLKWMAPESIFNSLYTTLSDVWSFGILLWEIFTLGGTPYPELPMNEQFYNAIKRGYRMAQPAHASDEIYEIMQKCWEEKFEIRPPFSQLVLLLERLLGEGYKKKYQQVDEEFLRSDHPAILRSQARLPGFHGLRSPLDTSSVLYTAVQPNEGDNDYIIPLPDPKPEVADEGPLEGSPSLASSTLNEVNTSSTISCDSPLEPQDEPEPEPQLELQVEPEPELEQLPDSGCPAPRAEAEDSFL

| IC50 (SKOV3; Table 5) [µM] | IC50 (A431; Table 5) [µM] | IC50 (PDGFR; [3]) [µM] | IC50 (EGFR; [3]) [µM] | IC50 (Her2 [1]; Table 5) [µM] | IC50 (SKOV3; Table 7) [µM] | IC50 (A431; Table 7) [µM] | IC50 (PDGFR; [4]) [µM] | IC50 (EGFR; [4]) [µM] | IC50 (Her2 [1]; Table 7) [µM] | IC50 (Her2 [2]) [µM] | SMILES |
| --- | --- | --- | --- | --- | --- | --- | --- | --- | --- | --- | --- |
| 5.2 | 5.25 | > 100 | > 100 | > 100 | – | – | – | – | – | – | COc1cc(C)c(CC2C(=O)Nc3ccccc32)cc1C(C)C (centres unmarked) [AAI-9, 3-(5-Isopropyl-4-methoxy-2-methylbenzyl)-1,3-dihydroindol-2-one] |
| > 50 | > 50 | > 100 | > 100 | > 100 | – | – | – | – | – | – | O=C1Nc2cccc(CCO)c2C1Cc1ccccc1 (centres unmarked) [AAI-12, 3-Benzyl-4-(2-hydroxyethyl)-1,3-dihydroindol-2-one] |
| – | – | – | – | – | 9.7 | 4.2 | > 100 | > 100 | 22.7 | – | O=C1Nc2cccc(CCO)c2/C1=C/c1ccc2[nH]ccc2c1 [IN-007, 4-(2-Hydroxy-ethyl)-3-(1H-indol-5-ylmethylene)-1,3-dihydro-indol-2-one] |
| – | – | – | – | – | 25.2 | 13.6 | – | > 100 | > 100 | 4.2 | Cc1[nH]c(/C=C2\C(=O)Nc3cccc(CCO)c32)c(C)c1CCCN(C)C [IN-009, 3-[4-(3-Dimethylamino-propyl)-3,5-dimethyl-1H-pyrrol-2-ylmethylene]-4-(2-hydroxy-ethyl)-1,3-dihydro-indol-2-one] |
